Experiments:
[1] = tested on: human neutrophils; assay: Human neutrophil viability, Cell Counting Kit-8; format: cell-based; conditions: cells in PBS or RPMI; compared to buffer alone
Experimental: Cell viability in the presence of increasing amounts of PA-dPEG24 was determined using the Cell Counting Kit-8 (Dojindo). Cell Counting Kit-8 (CCK-8) is a sensitive colorimetric assay for the determination of cell viability in cell proliferation and cytotoxicity assays. The highly water-soluble tetrazolium salt, WST-8, is reduced by dehydrogenase activities in cells to give a yellow-color formazan dye, which is soluble in the tissue culture media. The amount of the formazan dye, generated by the activities of dehydrogenases in cells, is directly proportional to the number of living cells. Neutrophils were isolated from whole blood. Briefly, heparinized whole blood was collected from four different individuals (n=4). The blood was spun on a Hypaque/Ficoll gradient. The pellet was collected, and 3% dextran was added for 20 minutes. The supernatant was collected and washed several times. After a red blood cell lysis, the neutrophils were resuspended in either PBS or RPMI at a concentration of 1.0×10^6 cells/mL. ‘Fresh’ neutrophils were taken at this point and 100 uL (100,000 cells/well) were added to a 96-well plate. 10 uL of CCK-8 (Dojindo Molecular Technologies) was added to each well for 2 hours at 37 C. Absorbance at 450 nm was read to determine viability. […] Absorbance at 450 nm was read to determine viability.

[2] = molecular target: MAC-1/CR3 (Homo sapiens, UniProt P05107+P11215); assay: ELISA-type plate binding assay, MAC-1; conditions: 1% gelatin/PBS buffer
Experimental: To address this hypothesis, an ELISA-type binding assay was developed in which neutrophil ligands (LFA-1 and MAC-1/CR3) and […] cell ligands (ICAM-1/CD54 and ICAM-2/CD102) were bound to microtiter plates. Plates were then incubated with increasing amounts of PA-dPEG24 in 1% gelatin/PBS buffer probed with antibody to the peptide and developed.

[3] = molecular target: MPO (myeloperoxidase) (Homo sapiens, UniProt P05164); assay: ELISA-type plate binding assay, MPO (positive control ligand); conditions: in human plasma
[4] = tested on: free DNA; assay: Free DNA in plasma by PicoGreen assay, two-hit ALI rat model; format: in vivo
Experimental: . Plasma samples were incubated with PicoGreen. […] All free DNA measurements for each animal were done in triplicate. Data are means and standard error of the mean. Statistical analysis was performed using bootstrap approach or Welch's ANOVA. * denotes p=0.026, ** denotes p=0.039 and *** denotes p=0.005 compared to 2-hit animals.
Neutrophil extracellular traps (NETs) released from activated neutrophils have been previously shown to play a pathogenic role in a variety of autoimmune, metabolic, and inflammatory diseases. […] . […] .

[5] = tested on: human neutrophils; assay: Human neutrophil adhesion to glass slides with or without fibrinogen; format: cell-based; conditions: increasing concentrations, 2.5 hours
Experimental: To ascertain whether the binding of PA-dPEG24 has an effect on the ability of neutrophils to adhere to surfaces in vitro, purified human neutrophils were incubated with increasing concentrations of PA-dPEG24, washed twice with PBS, placed on the glass slides, and then incubated in a humidified 37° C. incubator in the presence of 5% C02 for 2.5 hours. Slides were subsequently stained with DAPI (1:1000 in 2% BSA) followed by imaging at 20× by fluorescence microscopy. Quantification of the amount of cell staining was performed using ImageJ analysis (NIH). […] To ascertain if adherence of neutrophils was altered on glass slides pre-coated with fibrinogen, purified human neutrophils were incubated with increasing concentrations of PA-dPEG24, washed twice with PBS, placed on the fibrinogen-coated glass slides, and then incubated in a humidified 37° C. incubator in the presence of 5% C02 for 2.5 hours. Slides were subsequently stained with DAPI (1:1000 in 2% BSA) followed by imaging at 20× by fluorescence microscopy. Quantification of the amount of cell staining was performed using ImageJ analysis (NIH).

[6] = tested on: human umbilical vascular endothelial cell (HUVEC); assay: HUVEC basement membrane matrix (Geltrex) culture, LPS-stimulated angiogenesis; format: cell-based; conditions: no CellTrace dye, compared with 3-dimensional system
Experimental: FIG. 36. […] Cells were applied to a layer of basement membrane matrix containing LPS to stimulate angiogenesis and cultured for 18 hours at 37° C. Angiogenesis (nascent tube formation and sprouting) was observed by light microscopy.

[7] = tested on: rat eye; assay: Intravitreal safety study, slit lamp examination with modified MacDonald-Shadduck Ocular Grading; format: in vivo; parameters: key to Conjunctiva pathology score / Anterior Chamber pathology score / Iris pathology score / Cornea pathology score: 0: no pathology; 1: slight pathology; 2: moderate pathology; 3/4: severe pathology; conditions: for Anterior Chamber pathology score / Conjunctiva pathology score / Cornea pathology score / Iris pathology score: rats 1-4
Experimental: Safety study. […] A saline control was administered to the left eye. For this procedure, animals were anesthetized with isoflurane and also received the topical anesthetic proparacaine. Additionally, animals received the topical antibiotic tobramycin after injection. Slit lamp examinations were performed at the indicated time points up to 72 hours post-injection and pathology graded using a modified MacDonald-Shadduck Ocular Grading system with the following scoring scale: 0, no pathology; 1, slight pathology; 2, moderate pathology; 3/4, severe pathology.

[8] = 30 min after IVT 160 mg/ml in 5 microliters
[9] = 2 hour after IVT 160 mg/ml in 5 microliters
[10] = 24 hour after IVT 160 mg/ml in 5 microliters
[11] = 48 hour after IVT 160 mg/ml in 5 microliters
[12] = 72 hour after IVT 160 mg/ml in 5 microliters
[13] = Pre-IVT (baseline), eye assigned to RLS-0071

MPO (myeloperoxidase), sequence (P05164 49-745, species assumed): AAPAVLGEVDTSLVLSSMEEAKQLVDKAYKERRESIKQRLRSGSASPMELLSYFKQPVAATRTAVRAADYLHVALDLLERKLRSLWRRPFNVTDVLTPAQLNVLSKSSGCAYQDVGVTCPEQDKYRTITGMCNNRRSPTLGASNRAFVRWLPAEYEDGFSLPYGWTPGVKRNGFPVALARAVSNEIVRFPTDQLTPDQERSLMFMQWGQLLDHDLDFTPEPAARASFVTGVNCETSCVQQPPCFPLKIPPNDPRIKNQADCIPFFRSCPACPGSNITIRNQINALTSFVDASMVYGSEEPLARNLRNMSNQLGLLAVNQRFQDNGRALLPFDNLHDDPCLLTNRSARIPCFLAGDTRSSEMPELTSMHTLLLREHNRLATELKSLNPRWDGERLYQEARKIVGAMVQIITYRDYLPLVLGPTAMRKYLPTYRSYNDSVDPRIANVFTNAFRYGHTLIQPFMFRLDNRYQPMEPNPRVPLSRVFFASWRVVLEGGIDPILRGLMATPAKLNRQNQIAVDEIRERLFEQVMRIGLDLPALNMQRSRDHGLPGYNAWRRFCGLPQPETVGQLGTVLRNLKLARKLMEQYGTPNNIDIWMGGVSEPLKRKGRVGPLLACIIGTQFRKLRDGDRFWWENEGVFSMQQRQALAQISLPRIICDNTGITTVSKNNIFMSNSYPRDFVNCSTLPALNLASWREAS
MAC-1/CR3, sequence (P05107 23-769, other chains not shown): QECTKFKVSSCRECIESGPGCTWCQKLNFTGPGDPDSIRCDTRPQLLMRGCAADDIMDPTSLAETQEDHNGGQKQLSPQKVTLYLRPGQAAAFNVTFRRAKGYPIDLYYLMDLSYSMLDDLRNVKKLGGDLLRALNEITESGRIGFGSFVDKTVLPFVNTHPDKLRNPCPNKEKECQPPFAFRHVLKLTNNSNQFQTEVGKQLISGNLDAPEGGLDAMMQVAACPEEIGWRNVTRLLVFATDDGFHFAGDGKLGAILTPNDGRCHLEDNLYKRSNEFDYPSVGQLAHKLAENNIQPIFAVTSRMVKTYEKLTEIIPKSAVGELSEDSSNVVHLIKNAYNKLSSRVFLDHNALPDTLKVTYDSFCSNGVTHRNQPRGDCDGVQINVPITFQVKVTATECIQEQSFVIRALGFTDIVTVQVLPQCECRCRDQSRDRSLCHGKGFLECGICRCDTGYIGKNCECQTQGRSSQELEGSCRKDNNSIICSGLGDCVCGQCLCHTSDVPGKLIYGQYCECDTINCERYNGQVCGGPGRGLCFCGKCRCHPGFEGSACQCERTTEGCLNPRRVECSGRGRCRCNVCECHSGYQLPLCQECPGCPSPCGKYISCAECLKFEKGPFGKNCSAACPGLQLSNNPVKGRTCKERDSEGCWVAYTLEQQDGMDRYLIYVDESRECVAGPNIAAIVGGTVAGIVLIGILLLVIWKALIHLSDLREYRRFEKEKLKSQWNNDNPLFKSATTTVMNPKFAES

CC[C@H](C)[C@H](N)C(=O)N[C@@H](C)C(=O)N[C@@H](CC(C)C)C(=O)N[C@H](C(=O)N[C@@H](CC(C)C)C(=O)N[C@@H](CCC(=O)O)C(=O)N1CCC[C@H]1C(=O)N[C@H](C(=O)N[C@@H](CS)C(=O)N[C@@H](CS)C(=O)N[C@@H](CCC(N)=O)C(=O)N[C@@H](CCC(=O)O)C(=O)N[C@@H](CCCNC(=N)N)C(=O)N[C@@H](C)C(=O)N[C@@H](C)C(=O)NCCOCCOCCOCCOCCOCCOCCOCCOCCOCCOCCOCCOCCOCCOCCOCCOCCOCCOCCOCCOCCOCCOCCOCCOCCC(=O)O)[C@@H](C)CC)[C@@H](C)CC [RLS-0071]
stability in diluted dose solution in water (6-day storage at -20 °C freezer, M2768 detected): not stable
stability in solutions, rat urine, and/or rat plasma (decomposes to M2768 by dehydrogenation): not stable
stability in rat plasma and urine (spiked into control blank rat plasma and pre-dose urine, or decomposition during sample processing): not stable in rat plasma/urine
neutrophil viability (CCK-8, absorbance 450 nm) [1]: dose-dependent increase in viability
binding to MAC-1 [2]: but not MAC-1
binding to MPO [3]: bound PA-dPEG24 in a dose-dependent manner
free DNA level in plasma ([4]; prophylactic 10, 40 and 160 mg/kg, 4 hours after transfusion, 160 mg/kg significant (p=0.026)): reduced levels of free DNA
free DNA level in plasma ([4]; rescue 40 mg/kg up to three hours after 2-hit injury, 120 and 180 minutes significant (p=0.039, p=0.005)): reduced levels of free DNA
neutrophil adherence to fibrinogen-coated glass slides ([5]; fibrinogen-coated glass): dose-dependently decreased neutrophil adherence
number of neutrophils adhered to glass slides ([5]; untreated glass): dose-dependently reduced the number of cells adhered to the slides
angiogenesis (sprouting and tube formation) [6]: same results
ocular toxicity by slit lamp after intravitreal injection ([7]; 160 mg/kg (maximal deliverable dose) as printed, all 4 animals, up to 72 hours): No RLS-0071 related toxicity was observed
Anterior Chamber pathology score [7, 8]: 0
Conjunctiva pathology score [7, 8]: 0
Cornea pathology score [7, 8]: 0
Iris pathology score [7, 8]: 0
Anterior Chamber pathology score [7, 9]: 0
Conjunctiva pathology score [7, 9]: 0
Cornea pathology score [7, 9]: 0
Iris pathology score [7, 9]: 0
Anterior Chamber pathology score [7, 10]: 0
Conjunctiva pathology score [7, 10]: 0
Cornea pathology score [7, 10]: 0
Iris pathology score [7, 10]: 0
Anterior Chamber pathology score [7, 11]: 0
Conjunctiva pathology score [7, 11]: 0
Cornea pathology score [7, 11]: 0
Iris pathology score [7, 11]: 0
Anterior Chamber pathology score [7, 12]: 0
Conjunctiva pathology score [7, 12]: 0
Cornea pathology score [7, 12]: 0
Iris pathology score [7, 12]: 0
Anterior Chamber pathology score [7, 13]: 0
Conjunctiva pathology score [7, 13]: 0
Cornea pathology score [7, 13]: 0
Iris pathology score [7, 13]: 0
